{"source": "paper PMC7139549", "about": "“TLD1433 Photosensitizer Inhibits Conjunctival Melanoma Cells in Zebrafish Ectopic and Orthotopic Tumour Models” (Cancers, 2020)", "tested_on": "CRMM1 cells injected behind the eye (RO) of zebrafish embryos", "assay": "Zebrafish orthotopic CM tumour model, CRMM1", "format": "in vivo, Zebrafish (Danio rerio)", "details": "for PI (Fluorescence Intensity) / PI (Tumour Area) / Relative Tumour Burden as Measured by Fluorescence Intensity / Tumour Area: CRMM1, Orthotopic Model; for PI (Fluorescence Intensity) / PI (Tumour Area): 0 vs 114 J.cm^−2", "description": "The zebrafish ectopic conjunctival melanoma tumour model has been described previously. In this model, around 200 fluorescent CM cells are injected into the Duct of Cuvier at 2 dpf, and then disseminate through the blood circulation and grow in the head and tail. To establish the orthotopic tumour model, around 100 red, (td)Tomato fluorescent CRMM1 or CRMM2 cells were injected RO at 2 dpf into tg(Fli:GFP/Casper), endothelial reporter transgenic zebrafish with green fluorescent vasculature and examined by fluorescent microscopy at day 1 and 4 after engraftment (Figure 6A). Tumour expansion at the injection site was measured as fluorescence intensity and tumour area.\nFor cancer cell injection, two days post-fertilization (dpf), dechorionated zebrafish embryos were anaesthetized with 0.003% tricaine (Sigma) and plated on a 10 cm Petri dish covered with 1.5% of solidified agarose. CRMM1 and CRMM2 cells were suspended in PBS containing 2% polyvinylpyrrolidone (PVP; Sigma-Aldrich) with a concentration of 50,000 cells/µL and loaded into borosilicate glass capillary needles (1 mm O.D. × 0.78 mm I.D.; Harvard Apparatus). In the ectopic model, 200 (td)Tomato fluorescent CM cells were injected into the Duct of Cuvier or at 2 dpf, which led to dissemination through the blood circulation and outgrowth in the head and tail. In orthotopic tumour model, 100 (td)Tomato fluorescent CRMM1 or CRMM2 cells were injected RO in 2 dpf embryos using a Pneumatic Picopump and a manipulator (WPI). After injection, the embryos were incubated in a 34 °C incubator. Images were acquired at 1-, 2- and 4-days post injection (dpi) with a Leica M165 FC stereo fluorescence microscope. Tumor growth was quantified by calculating the total fluorescence intensity and area with the ZF4 pixel counting program (Leiden). Each experiment was performed at least 3 times with a group size of >30 embryos.\nFluorescent CRMM1 and CRMM2 cells were injected at 2 dpf into the Duct of Cuvier (ectopic model) and behind the eye (orthotopic model) and TLD1433 was delivered by WA, IV and RO administration with or without a light treatment as described in 4.8. For the WA administration, the 4.6 nM TLD1433 solution was added to the tumour cells injected zebrafish at 2.5, 3.5, 4.5, 5.5 dpf and maintained for 12 h. At 3, 4, 5, 6 dpf, the fish water was refreshed, and after 1 h, embryos were exposed to green light for 90 min (21 mW/cm^2, 114 J/cm^2, 520 nm). For the IV and RO administration, 1 nL of 2.3 mM TLD1433 solution was injected via the dorsal vein or the RO site at 3, 4, 5, 6 dpf. After 1 h interval, the embryos were exposed to green light for 90 min (21 mW/cm^2, 114 J/cm^2, 520 nm). After treatment, the embryos images were acquired with a Leica M165 FC stereo fluorescence microscope. Tumor growth was quantified by calculating the total fluorescence intensity and area with the ZF4 pixel counting program (Leiden). Each experiment was performed at least 3 times with a group size of >30 embryos.", "key": {"[1]": {"details": "Intravenous (1 nL of 2.3 mM), Light Dose 0 J.cm^−2, vs control dark group (100%)"}, "[2]": {"details": "Intravenous (1 nL of 2.3 mM), Light Dose 114 J.cm^−2, vs control dark group (100%)"}, "[3]": {"details": "Water (4.6 nM), Light dose 0 J.cm^−2, vs control dark group (100%)"}, "[4]": {"details": "Water (4.6 nM), Light dose 114 J.cm^−2, vs control dark group (100%)"}, "[5]": {"details": "CRMM1, orthotopic model, RO 2.3 mM, green light 114 J.cm^−2"}}}
{"smiles": "Cc1ccnc(-c2cc(C)ccn2)c1.Cc1ccnc(-c2cc(C)ccn2)c1.[Cl-].[Cl-].[Ru+2].c1csc(-c2ccc(-c3ccc(-c4nc5c6cccnc6c6ncccc6c5[nH]4)s3)s2)c1", "note": "[TLD1433]", "values": [{"measurement": "PI (Fluorescence Intensity)", "setting": "Intravenous (1 nL of 2.3 mM)", "result": 0.82}, {"measurement": "PI (Tumour Area)", "setting": "Intravenous (1 nL of 2.3 mM)", "result": 0.87}, {"measurement": "Relative Tumour Burden as Measured by Fluorescence Intensity", "setting": "[1]", "result": 91, "unit": "%"}, {"measurement": "Tumour Area", "setting": "[1]", "result": 109, "unit": "%"}, {"measurement": "Relative Tumour Burden as Measured by Fluorescence Intensity", "setting": "[2]", "result": 111, "unit": "%"}, {"measurement": "Tumour Area", "setting": "[2]", "result": 126, "unit": "%"}, {"measurement": "PI (Tumour Area)", "setting": "Retro orbital (1 nL of 2.3 mM)", "result": 4.1}, {"measurement": "Tumour Area", "setting": "Retro orbital (1 nL of 2.3 mM), Light dose 0 J.cm^−2, vs control dark group (100%)", "result": 125, "unit": "%"}, {"measurement": "Tumour Area", "setting": "Retro orbital (1 nL of 2.3 mM), Light dose 114 J.cm^−2, vs control dark group (100%)", "result": 31, "unit": "%"}, {"measurement": "PI (Fluorescence Intensity)", "setting": "Retro-orbital (1 nL of 2.3 mM)", "result": 1.8}, {"measurement": "Relative Tumour Burden as Measured by Fluorescence Intensity", "setting": "Retro-orbital (1 nL of 2.3 mM), Light Dose 0 J.cm^−2, vs control dark group (100%)", "result": 120, "unit": "%"}, {"measurement": "Relative Tumour Burden as Measured by Fluorescence Intensity", "setting": "Retro-orbital (1 nL of 2.3 mM), Light Dose 114 J.cm^−2, vs control dark group (100%)", "result": 65, "unit": "%"}, {"measurement": "PI (Fluorescence Intensity)", "setting": "Water (4.6 nM)", "result": 1.0}, {"measurement": "PI (Tumour Area)", "setting": "Water (4.6 nM)", "result": 1.0}, {"measurement": "Relative Tumour Burden as Measured by Fluorescence Intensity", "setting": "[3]", "result": 96, "unit": "%"}, {"measurement": "Tumour Area", "setting": "[3]", "result": 90, "unit": "%"}, {"measurement": "Relative Tumour Burden as Measured by Fluorescence Intensity", "setting": "[4]", "result": 96, "unit": "%"}, {"measurement": "Tumour Area", "setting": "[4]", "result": 89, "unit": "%"}, {"measurement": "diminished fluorescence intensity", "setting": "[5]", "result": 35, "unit": "%"}, {"measurement": "diminished tumour area", "setting": "[5]", "result": 69, "unit": "%"}, {"measurement": "effect on tumour burden (in words)", "setting": "CRMM1, orthotopic model, WA at the MTD (4.6 nM), light 114 J.cm^−2", "result": "did not inhibit tumour burden"}]}
